Numbers after ± are expanded uncertainties.
Experiments:
[1] = refractive index (Na D-line) (dimensionless); xn = mol fraction of the nth substance listed; details: 298.15 K, 100 kPa, Liquid, Standard Abbe refractometry
[2] = xn = mol fraction of the nth substance listed; details: 100 kPa, Liquid; for viscosity: Falling or rolling sphere viscometry; for mass density: Vibrating tube method; for electrical conductivity: Direct current cell with electrodes

CN(C)C(=[NH2+])N(C)C.c1c[n-]cn1 [1,1,3,3-tetramethylguanidinium imidazol-1-ide] + O
[1]
Details	refractive index
x1 = 0.0511	1.3973 ± 0.0011
x1 = 0.0991	1.4278 ± 0.0006
x1 = 0.207	1.4589 ± 0.0006
x1 = 0.3005	1.4722 ± 0.0005
x1 = 0.3834	1.4787 ± 0.0005
x1 = 0.4978	1.485 ± 0.0005
x1 = 0.6356	1.4889 ± 0.0006
x1 = 0.8019	1.4922 ± 0.0006
x1 = 0.8984	1.4923 ± 0.0006
x1 = 1	1.4943 ± 0.0006

[2]
Details	electrical conductivity [S/m]	mass density [kg/m3]	viscosity [mPa·s]
293.15 K, x1 = 0.0511	–	1023.04 ± 4.1	3.157 ± 0.14
293.15 K, x1 = 0.0991	–	1024.53 ± 4.1	5.561 ± 0.23
293.15 K, x1 = 0.207	–	1025.54 ± 4.1	10.23 ± 0.42
293.15 K, x1 = 0.3005	–	1019.92 ± 4.1	14.29 ± 0.59
293.15 K, x1 = 0.3834	–	1015.77 ± 4.1	15.79 ± 0.65
293.15 K, x1 = 0.4978	–	1010.24 ± 4	16.03 ± 0.66
293.15 K, x1 = 0.6356	–	1005.44 ± 4	14.5 ± 0.6
293.15 K, x1 = 0.8019	–	1001.45 ± 4	12.12 ± 0.51
293.15 K, x1 = 0.8984	–	999.17 ± 4	10.19 ± 0.43
293.15 K, x1 = 1	–	997.25 ± 4.1	8.952 ± 0.38
298.15 K, x1 = 0.002	1.524 ± 0.015	–	–
298.15 K, x1 = 0.003	1.88 ± 0.019	–	–
298.15 K, x1 = 0.0039	2.47 ± 0.03	–	–
298.15 K, x1 = 0.005	2.88 ± 0.03	–	–
298.15 K, x1 = 0.006	3.19 ± 0.03	–	–
298.15 K, x1 = 0.008	3.36 ± 0.03	–	–
298.15 K, x1 = 0.01	3.67 ± 0.04	–	–
298.15 K, x1 = 0.0149	3.96 ± 0.04	–	–
298.15 K, x1 = 0.0199	3.93 ± 0.04	–	–
298.15 K, x1 = 0.0299	3.72 ± 0.04	–	–
298.15 K, x1 = 0.0398	3.22 ± 0.03	–	–
298.15 K, x1 = 0.0499	2.7 ± 0.03	–	–
298.15 K, x1 = 0.0511	–	1019.97 ± 4.1	2.519 ± 0.11
298.15 K, x1 = 0.0599	2.31 ± 0.02	–	–
298.15 K, x1 = 0.0699	1.97 ± 0.02	–	–
298.15 K, x1 = 0.0799	1.711 ± 0.017	–	–
298.15 K, x1 = 0.0893	1.517 ± 0.015	–	–
298.15 K, x1 = 0.0991	–	1020.57 ± 4.1	4.311 ± 0.18
298.15 K, x1 = 0.0996	1.31 ± 0.013	–	–
298.15 K, x1 = 0.1495	0.767 ± 0.008	–	–
298.15 K, x1 = 0.1994	0.53 ± 0.005	–	–
298.15 K, x1 = 0.207	–	1021.21 ± 4.1	7.645 ± 0.32
298.15 K, x1 = 0.3005	–	–	11.07 ± 0.46
298.15 K, x1 = 0.3504	0.272 ± 0.003	–	–
298.15 K, x1 = 0.3834	–	–	12.14 ± 0.5
298.15 K, x1 = 0.4978	–	–	12.35 ± 0.51
298.15 K, x1 = 0.4989	0.215 ± 0.002	–	–
298.15 K, x1 = 0.6356	–	–	11.28 ± 0.47
298.15 K, x1 = 0.6512	0.195 ± 0.002	–	–
298.15 K, x1 = 0.8019	–	–	9.561 ± 0.4
298.15 K, x1 = 0.8447	0.205 ± 0.002	–	–
298.15 K, x1 = 0.8984	–	–	8.186 ± 0.34
298.15 K, x1 = 1	0.218 ± 0.002	–	7.287 ± 0.31

Source: the NIST ThermoML archive (doi:10.1016/j.jct.2016.01.012)
